According to patent US10358426B2, “Fungicidal substituted 2-[2-halogenalkyl-4-(phenoxy)-phenyl]-1-[1,2,4]triazol-1-yl-ethanol compounds” (BASF Agro B.V., priority 2011, dated 2019):

Tests used:
Septoria tritici [1] = experiment: Preventative control of leaf blotch on wheat, inoculation next day (Septtr P1), greenhouse; type: in vivo; details: for Disease (%) at 150 pm Septtr P1: 150 ppm, Use Example 9, untreated control 90; for Disease(%) at 150 ppm Septtr P1: Use Example 6, untreated control 80
Septoria tritici [2] = experiment: Preventative control of leaf blotch on wheat, inoculation seven days later (Septtr P7), greenhouse; type: in vivo
Septoria tritici [3] = experiment: Curative control of leaf blotch on wheat (Septtr K7), greenhouse; type: in vivo; details: untreated control 90
Pyrenophora teres = type: cell-based; details: 32 ppm; Use Example 10 M6
Pyricularia oryzae = experiment: microbe, parasite or virus in culture; type: cell-based; details: for activity at 2 ppm: Pyricularia oryzae, read-out: growth (relative growth in % of control)
Uncinula necator = experiment: Control of powdery mildew on grape (Uncine P3), greenhouse; type: in vivo; details: untreated control 100
Description: Preventative Control of Leaf Blotch on Wheat Caused by Septoria tritici (Septtr P7) Grape cuttings were grown in pots to the 4 to 5 leaf stage. […] Three days later the treated plants were inoculated with spores of Uncinula necator by shaking heavily infestated stock plants over the treated pots. […] Preventative Fungicidal Control of Early Blight on Tomatoes (Alternaria solani) (Alteso P7)

Alternaria solani = experiment: Preventative fungicidal control of early blight on tomatoes, inoculation seven days later (Alteso P7), greenhouse; type: in vivo; details: tomato; for Disease (%) at 63 ppm Alteso P7: untreated control 100; for Disease (%) at 16 ppm Alteso P7: untreated control 90
[4] = Use Example 11, untreated control 90
[5] = Use Example 8, untreated control 80
[6] = Use Example 6, untreated control 80

## COC(Cn1cncn1)c1ccc(Oc2ccc(Cl)cc2)cc1Cl (centres unmarked) [DE3801233 compound 2, reference compound]
Septoria tritici [1]
  Disease (%) at 150 pm Septtr P1: 30%
Septoria tritici [2]; [4]
  Disease (%) at 16 ppm Septtr P7: 90%
Septoria tritici [3]
  Disease (%) at 16 ppm Septtr K7: 80%

## OC(Cn1cncn1)c1ccc(Oc2ccc(Cl)cc2Cl)cc1C(F)(F)F (centres unmarked) [I-13]
Pyrenophora teres
  growth (relative growth in % of control): 1%

## OC(Cn1cncn1)c1ccc(Oc2ccc(Cl)cc2)cc1C(F)(F)F (centres unmarked) [compound I-1]
Septoria tritici [1]
  Disease(%) at 150 ppm Septtr P1: 0%
Pyricularia oryzae; Use Example 7
  Growth (%) at 0.5 ppm Pyrior: 47%
Septoria tritici [2]; [5]
  Disease (%) at 16 ppm Septtr P7: 2%
Septoria tritici [2]; [4]
  Disease (%) at 16 ppm Septtr P7: 3%
Uncinula necator
  Disease (%) at 16 ppm Uncine P3: 0%
Alternaria solani
  Disease (%) at 63 ppm Alteso P7: 3%

## CC(O)(Cn1cncn1)c1ccc(Oc2ccc(Cl)cc2)cc1C(F)(F)F (centres unmarked) [compound I-2, 2-[4-(4-chloro-phenoxy)-2-trifluoromethyl-phenyl]-1-[1,2,4]triazol-1-yl-propan-2-ol]
Pyricularia oryzae; Use Example 6
  Growth (%) at 0.5 ppm Pyrior: 68%
Pyricularia oryzae; Use Example 7
  Growth (%) at 0.5 ppm Pyrior: 68%
Septoria tritici [2]; [6]
  Disease (%) at 16 ppm Septtr P7: 10%
Alternaria solani
  Disease (%) at 16 ppm Alteso P7: 15%

## CCC(O)(Cn1cncn1)c1ccc(Oc2ccc(Cl)cc2)cc1C(F)(F)F (centres unmarked) [compound I-3, 2-[4-(4-chloro-phenoxy)-2-trifluoromethyl-phenyl]-1[1,2,4]triazol-1-yl-butan-2-ol]
Pyricularia oryzae; Use Example 7
  Growth (%) at 0.5 ppm Pyrior: 58%
Pyricularia oryzae
  activity at 2 ppm: ≤ 4%

## CCCC(O)(Cn1cncn1)c1ccc(Oc2ccc(Cl)cc2)cc1C(F)(F)F (centres unmarked) [compound I-4]
Pyricularia oryzae; Use Example 7
  Growth (%) at 0.5 ppm Pyrior: 19%
Septoria tritici [2]; [5]
  Disease (%) at 16 ppm Septtr P7: 25%

## CC#CC(O)(Cn1cncn1)c1ccc(Oc2ccc(Cl)cc2)cc1C(F)(F)F (centres unmarked) [compound I-6, 2-[4-(4-chlorophenoxy)-2-(trifluoromethyl)phenyl]-1-(1,2,4-triazol-1-yl)pent-3-yn-2-ol]
Pyricularia oryzae; Use Example 7
  Growth (%) at 0.5 ppm Pyrior: 37%
Septoria tritici [2]; [5]
  Disease (%) at 16 ppm Septtr P7: 0%
other
  melting point: 137 °C

## CC(C)C(O)(Cn1cncn1)c1ccc(Oc2ccc(Cl)cc2)cc1C(F)(F)F (centres unmarked) [compound I-7, 2-[4-(4-chlorophenoxy)-2-(trifluoromethyl)phenyl]-3-methyl-1-(1,2,4-triazol-1-yl)butan-2-ol]
other
  melting point: 114 °C

## COC(C)(Cn1cncn1)c1ccc(Oc2ccc(Cl)cc2)cc1C(F)(F)F (centres unmarked) [compound I-10, 1-[2-[4-(4-chlorophenoxy)-2-(trifluoromethyl)phenyl]-2-methoxy-propyl]-1,2,4-triazole]
Pyricularia oryzae
  activity at 2 ppm: ≤ 4%

## COC(Cn1cncn1)c1ccc(Oc2ccc(Cl)cc2)cc1C(F)(F)F (centres unmarked) [compound I-14]
Septoria tritici [1]
  Disease (%) at 150 pm Septtr P1: 0%
Septoria tritici [2]; [4]
  Disease (%) at 16 ppm Septtr P7: 15%
Septoria tritici [3]
  Disease (%) at 16 ppm Septtr K7: 20%

## CC(O)(Cn1cncn1)c1ccc(Oc2ccc(F)cc2)cc1C(F)(F)F (centres unmarked) [compound I-16]
Septoria tritici [1]
  Disease (%) at 150 pm Septtr P1: 0%

## OC(Cn1cncn1)c1ccc(Oc2ccc(Cl)cc2)cc1Cl (centres unmarked) [compound V6, reference compound]
Septoria tritici [1]
  Disease(%) at 150 ppm Septtr P1: 60%
Septoria tritici [2]; [4]
  Disease (%) at 16 ppm Septtr P7: 30%
Uncinula necator
  Disease (%) at 16 ppm Uncine P3: 40%
Alternaria solani
  Disease (%) at 63 ppm Alteso P7: 40%

## CC(O)(Cn1cncn1)c1ccc(Oc2ccc(Cl)cc2)cc1Cl (centres unmarked) [compound V18, reference compound]
Pyricularia oryzae; Use Example 6
  Growth (%) at 0.5 ppm Pyrior: 82%
Pyricularia oryzae; Use Example 7
  Growth (%) at 0.5 ppm Pyrior: 82%
Septoria tritici [2]; [6]
  Disease (%) at 16 ppm Septtr P7: 60%
Septoria tritici [2]; [4]
  Disease (%) at 16 ppm Septtr P7: 67%
Alternaria solani
  Disease (%) at 16 ppm Alteso P7: 60%

## CC(O)(Cn1cncn1)c1ccc(Oc2ccc(F)cc2)cc1Cl (centres unmarked) [compound V19, reference compound]
Septoria tritici [1]
  Disease (%) at 150 pm Septtr P1: 40%
Septoria tritici [2]; [5]
  Disease (%) at 16 ppm Septtr P7: 60%
